From PMC6079302, “Investigating the Mechanism of Action of Diketopiperazines Inhibitors of the Burkholderia cenocepacia Quorum Sensing Synthase CepI: A Site-Directed Mutagenesis Study” (Frontiers in Pharmacology, 2018)

Assays:
CepI Q46R mutant = target: T1, CepI Q46R mutant (Burkholderia cenocepacia, UniProt B4EMD2, Q46R); test: CepI activity assay (DCPIP), IC50 determination, Q46R mutant; format: biochemical
T1 sequence (B4EMD2 1-202 Q46R): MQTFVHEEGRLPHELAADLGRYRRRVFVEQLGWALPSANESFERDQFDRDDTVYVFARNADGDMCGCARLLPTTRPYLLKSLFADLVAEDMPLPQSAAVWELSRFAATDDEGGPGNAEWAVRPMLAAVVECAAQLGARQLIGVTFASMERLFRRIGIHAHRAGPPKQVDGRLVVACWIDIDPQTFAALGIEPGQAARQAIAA

CepI wild type = target: T2, CepI wild type (Burkholderia cenocepacia, UniProt B4EMD2); test: CepI activity assay (DCPIP), IC50 determination, wild type enzyme; format: biochemical; conditions: 70 μM C8-ACP, 40 μM SAM, 4 μM CepI, read-out: compound 8b IC50
T2 sequence (B4EMD2 1-202): T1 sequence (B4EMD2 1-202 Q46R)
Experimental: Wild type and mutant CepI were expressed in Escherichia coli BL21(DE3) cells and purified as previously described ([Scoffone et al., 2016]).
CepI activity was determined according to [Christensen et al. (2013)]. Reaction mixtures contained 50 mM 4-(2-hydroxyethyl)-1-piperazineethanesulfonic acid (HEPES) pH 7.5, 0.005% Nonidet P-40, 0.13 mM 2,6-dichlorophenylindophenol (DCPIP), 70 μM Octanoyl-ACP (C8-ACP, prepared as reported previously) ([Quadri et al., 1998]; [Cronan and Thomas, 2009]), 40 μM S-adenosyl methionine (SAM), 4 μM CepI.
IC50 was determined measuring the enzyme activity in presence of different concentrations of compound, and values determined with the following equation ([Copeland, 2000]), where A[I] is the enzyme activity at inhibitor concentration [I] and A[0] is the enzyme activity without inhibitor.

CepI E40Q mutant = target: T3, CepI E40Q mutant (Burkholderia cenocepacia, UniProt B4EMD2, E40Q); test: CepI activity assay (DCPIP), IC50 determination, E40Q mutant; format: biochemical
T3 sequence (B4EMD2 1-202 E40Q): T1 sequence (B4EMD2 1-202 Q46R)

CepI S41R mutant = target: T4, CepI S41R mutant (Burkholderia cenocepacia, UniProt B4EMD2, S41R); test: CepI activity assay (DCPIP), IC50 determination, S41R mutant; format: biochemical; conditions: compound 8b IC50, CepI S41R; 70 μM C8-ACP, 40 μM SAM, 4 μM CepI
T4 sequence (B4EMD2 1-202 S41R): T1 sequence (B4EMD2 1-202 Q46R)

CepI R24Q mutant = target: T5, CepI R24Q mutant (Burkholderia cenocepacia, UniProt B4EMD2, R24Q); test: CepI activity assay (DCPIP), IC50 determination, R24Q mutant; format: biochemical
T5 sequence (B4EMD2 1-202 R24Q): T1 sequence (B4EMD2 1-202 Q46R)

B. cenocepacia J2315 = test: Proteomic analysis (2-DE, LC-MS/MS) of treated cells compared with the ΔcepI strain; format: cell-based, Burkholderia cenocepacia; conditions: J2315 cells treated with 25 μM 8b, compared with untreated J2315; same as ΔcepI profile
Experimental: Burkholderia cenocepacia ΔcepI ([Udine et al., 2013]) and J2315 (with or without 25 μM of 8b compound) were grown in 10 ml of LB medium until OD600 nm > 2. Cells were then harvested, resuspended in 0.2 ml of Tris-HCl 50 mM, pH 7.5, disrupted by sonication, and centrifuged at 12,000 rpm for 1 h at 4°C.
The amount of proteins present in the supernatant was quantified by bicinchoninic acid method ([Smith et al., 1985]), then 300 μg were precipitated with 10% (v/v) trichloroacetic acid. The obtained protein pellet was dissolved in 125 μL of rehydration buffer (8 M urea, 4% CHAPS (w/v), 65 mM DTE, 0.8% carrier ampholytes (v/v) and 0.5% bromophenol blue) and loaded onto 7 cm IPG strips, with nonlinear pH 3–10 gradient range (GE Healthcare), and strips rehydrated for 1 h at 20°C. The first-dimensional IEF was carried out at 15°C using an Ettan IPGphor system (GE Healthcare), by applying 30 V for 8 h, 120 V for 1 h, 500 V for 0.5 h, 1000 V for 0.5 h and 5000 V for 6 h, for a total of 29–30 kVh. […] Digital images of stained gels were acquired using VersaDoc Imaging Model 3000 (BioRad) and then subjected to quali/quantitative analysis using the PD Quest (BioRad) version 8.0.1 software. […] The software then determined the amount of spots present and calculated their intensity by applying the following algorithm: peak value (ODs/image units) ^∗σx^∗σy (standard deviations in x and y). […]

CepI S41A mutant = target: T6, CepI S41A mutant (Burkholderia cenocepacia, UniProt B4EMD2, S41A); test: CepI activity assay (DCPIP), IC50 determination, S41A mutant; format: biochemical
T6 sequence (B4EMD2 1-202 S41A): T1 sequence (B4EMD2 1-202 Q46R)

## O=C1C=CC(=O)C(C2NC(=O)[C@H](Cc3ccccc3)NC2=O)=C1 (stereo partly drawn) [8b, (3S)-3-Benzyl-6-(3,6-dioxocyclohexa-1,4-dien-1-yl)piperazine-2,5-dione]
CepI Q46R mutant
  IC50: 19.2 ± 3.5 µM
CepI Q46R mutant; CepI Q46R, 70 μM C8-ACP, 40 μM SAM, 4 μM CepI
  compound 8b IC50: comparable to wild type CepI
CepI wild type
  IC50: 7.2 ± 0.2 µM
CepI E40Q mutant
  IC50: 53 ± 2.6 µM
CepI S41R mutant
  IC50: 1070 ± 75 µM
CepI R24Q mutant
  IC50: 147 ± 17 µM
B. cenocepacia J2315
  density of the 2-DE protein spot of the giant cable pilus protein CblA: higher density
CepI S41A mutant
  IC50: 113 ± 11 µM
